Converted amounts (≈) assume the structure as drawn.
Assays:
[1] = Kinetic aqueous solubility of the compound in phosphate buffer saline at pH 7.4 after 1 hr by CLND method; format: physicochemical; settings: phosphate buffered saline, read-out: Kinetic_solubility
[2] = Inhibition of Mycobacterium tuberculosis DprE1 expressed in Escherichia coli BL21 (DE3) using farnesylphosphoryl-beta-D-ribose as substrate
[3] = system: Mycobacterium tuberculosis; experiment: Antitubercular activity against wild type Mycobacterium tuberculosis H37Rv ATCC 25618 assessed as bacterial growth inhibition measured after 6 days by resazurin assay; format: functional; settings: H37Rv ATCC 25618, 144 h
[4] = Volume of distribution at steady state in CD-1 mouse at 1 mg/kg, iv administered as single dose measured up to 24 hrs by LC-MS/MS analysis; format: ADME, organism-based; settings: in vivo, read-out: Vdss
[5] = system: Mycobacterium tuberculosis; experiment: Antibacterial activity against Mycobacterium tuberculosis transfected with pMV261 vector expressing DprE1 assessed as bacterial growth inhibition; format: functional
[6] = Half life in CD-1 mouse at 1 mg/kg, iv administered as single dose measured up to 24 hrs by LC-MS/MS analysis; format: ADME, organism-based; settings: in vivo
[7] = Oral bioavailability in CD-1 mouse at 5 mg/kg administered as single dose measured up to 24 hrs by LC-MS/MS analysis; format: ADME, organism-based; settings: in vivo
[8] = system: Mycobacterium tuberculosis; experiment: Antitubercular activity against wild type Mycobacterium tuberculosis H37Rv ATCC 25618 transfected with pATB45luc plasmid expressing luciferase infected in human THP1 cells assessed as reduction in bacterial growth after 4 days by BrightGlo luciferase assay; format: functional; settings: H37Rv ATCC 25618, 96 h
[9] = system: Mycobacterium tuberculosis; experiment: (§1) Antitubercular activity against Mycobacterium tuberculosis H37Rv infected in po dosed C57BL/6 mouse model of acute infection assessed as reduction in mycobacterial burden in lung administration for 8 consecutive days starting from day 1 post-infection and measured after 24 hrs post-last dose; format: functional
[10] = Clearance in CD-1 mouse at 1 mg/kg, iv administered as single dose measured up to 24 hrs by LC-MS/MS analysis; format: ADME, organism-based; settings: in vivo
[11] = Solubility of the compound in FaSSIF; format: physicochemical
HepG2 = experiment: Cytotoxicity against human HepG2 cells assessed as reduction in cell viability measured after 48 hrs by CellTiter-Glo assay; format: cell-based; settings: HepG2, 48 h
[12] = system: Mycobacterium tuberculosis; experiment: as §1, with “in” for “in po dosed”, “at 100 mg/kg, po treated” for “administration”, “dose (reference value: 5.8 log10cfu)” for “dose”; format: functional
Staphylococcus aureus = experiment: Antibacterial activity against Staphylococcus aureus assessed as bacterial growth inhibition; format: functional
Escherichia coli = experiment: Antibacterial activity against Escherichia coli assessed as bacterial growth inhibition; format: functional
[13] = system: Mycobacterium tuberculosis; experiment: as §1, with “effect on” for “reduction in”, “lung pretreated with CYP inhibitor ABT 2 hrs prior followed by compound” for “lung”; format: functional

Row | SMILES | pIC50 [2] | MIC90 [3] [µM] | other results
1 | O=C(C1CCN(c2cc(N3CCCCC3)ncn2)CC1)N1CCCCC1 | 5.8 | 35.6 (≈ 12.7 µg/mL) | solubility kinetic at 1 h [1]: > 405 µM
2 | CN(C)c1cc(N2CCCCC2)ncn1 | 3.9 | – | –
3 | O=C(C1CCN(c2cc(N3CCOCC3)[nH]c(=O)n2)CC1)N1CCC(Cc2ccccc2)CC1 | 7.4 | 3 (≈ 1.4 µg/mL) | –
4 | CC(C)C1CCN(C(=O)C2CCN(c3ccnc(N4CCOCC4)c3)CC2)CC1 | 5.1 | > 125 | –
5 | CC(C)N(C)c1cc(N2CCOCC2)ncn1 | < 4 | – | –
6 | CCN(CC)CCC1CCN(C(=O)C2CCN(c3cc(N4CCOCC4)ncn3)CC2)CC1 | < 4 | > 125 | –
7 | O=C(C1CCN(c2ccncn2)CC1)N1CCC(Cc2ccccc2)CC1 | 4.8 | > 125 | –
8 | Cc1ccc(OC2CCN(C(=O)C3CCN(c4cc(N5CCOCC5)ncn4)CC3)CC2)nc1 | 6.2 | 16 (≈ 7.47 µg/mL) | –
9 | O=C(C1CCN(c2cc(N3CCOCC3)ncn2)CC1)N1CCC(Nc2ccccc2)CC1 | 6.4 | 10 (≈ 4.51 µg/mL) | –
10 | CC(=O)N1CCN(c2cc(N3CCOCC3)ncn2)CC1 | < 4 | – | –
11 | CC(=O)N1CCC(C(=O)N2CCC(Cc3ccccc3)CC2)CC1 | < 4 | – | –
12 | O=C(C1CCN(c2cc(N3CCOCC3)ncn2)CC1)N1CCC(Oc2ccc(Cl)cc2)CC1 | 7.5 | 1.5 (≈ 0.729 µg/mL) | –
13 | c1nc(N2CCCCC2)cc(N2CCOCC2)n1 | 4.1 | – | –
14 | O=C(C1CCN(c2ncnc(N3CCOCC3)c2F)CC1)N1CCC(Cc2ccccc2)CC1 | 7.2 | 1.3 (≈ 0.608 µg/mL) | –
15 | O=C(C1CCN(c2cc(N3CCOCC3)ncn2)CC1)N1CCC(Cc2ccc(F)cc2)CC1 | 7.6 | 0.6 (≈ 0.281 µg/mL) | solubility kinetic at 1 h [1]: 160 µM (≈ 74.8 µg/mL); Vd [4]: 1.3 L/kg; MIC90 [5]: 15 µM (≈ 7.01 µg/mL); half-life [6]: 27 min; bioavailability [7]: 100%; MIC90 [8]: 0.21 µM (≈ 0.0982 µg/mL); ED99 [9]: 30 mg/kg; clearance [10]: 38.9 mL/min/kg; solubility [11]: 40 µM (≈ 18.7 µg/mL); IC50 (HepG2): 50.1 µM
16 | CC(=O)N1CCC(C(=O)N2CCC(C)CC2)CC1 | < 3 | – | –
17 | O=C(C1CCN(c2cc(N3CCOCC3)ncn2)CC1)N1CCCC(Cc2ccccc2)C1 (configuration not stated) | 6.2 | 32 (≈ 14.4 µg/mL) | –
18 | O=C(C1CCN(c2cc(N3CCOCC3)ncn2)CC1)N1CCC(Oc2ccc(Cl)cc2F)CC1 | 7.7 | 0.5 (≈ 0.252 µg/mL) | –
19 | O=C(C1CCN(c2cc(N3CCOCC3)ncn2)CC1)N1CCC(Cc2ccccn2)CC1 | 6.6 | 8.8 (≈ 3.97 µg/mL) | –

Row | SMILES | pIC50 [2] | MIC90 [3] [µM] | other results
20 | CC1CCN(C(=O)C2CCN(c3cc(N4CCOCC4)ncn3)CC2)CC1 | 6 | 15.6 (≈ 5.83 µg/mL) | –
21 | CC1CCN(C(=O)C2CCN(c3cc(N4CCCC4)ncn3)CC2)CC1 | 5.9 | 23.4 (≈ 8.37 µg/mL) | –
22 | c1nc(N2CCCCC2)cc(N2CCCCC2)n1 | 4.1 | – | –
23 | O=C(C1CCN(c2cc(N3CCOCC3)ncn2)CC1)N1CCC(Cc2cccnc2)CC1 | 7 | 3.3 (≈ 1.49 µg/mL) | –
24 | CC(C)C1CCN(C(=O)C2CCN(c3cccc(N4CCOCC4)n3)CC2)CC1 | 5 | > 125 | –
25 | O=C(C1CCN(c2cc(N3CCOCC3)ncn2)CC1)N1CCC(Oc2ccc(F)cc2)CC1 | 7.3 | 1.7 (≈ 0.798 µg/mL) | solubility kinetic at 1 h [1]: ≥ 364 µM; Vd [4]: 1.7 L/kg; MIC90 [5]: 62 µM (≈ 29.1 µg/mL); half-life [6]: 60 min; bioavailability [7]: 78.7%; MIC90 [8]: 0.62 µM (≈ 0.291 µg/mL); ED99 [9]: 29 mg/kg; clearance [10]: 23.5 mL/min/kg; solubility [11]: 74 µM (≈ 34.7 µg/mL); IC50 (HepG2): 31.6 µM
26 | O=C(C1CCN(c2cc(N3CCOCC3)ncn2)CC1)N1CCN(c2ccc(F)cc2)CC1 | 6.2 | 20 (≈ 9.09 µg/mL) | –
27 | CC1CCN(C(=O)C2CCN(c3nnc(-n4cccc4)s3)CC2)CC1 | 6.3 | 20.8 (≈ 7.48 µg/mL) | solubility kinetic at 1 h [1]: 328 µM (≈ 118 µg/mL)
28 | COc1c(N2C[C@@H]3CCCN[C@@H]3C2)c(F)cc2c(=O)c(C(=O)O)cn(C3CC3)c12 [MOXIFLOXACIN] | – | – | Activity [12]: 2.7 log10CFU
29 | O=C(C1CCN(c2cc(N3CCOCC3)ncn2)CC1)N1CCC(O)(Cc2ccccc2)CC1 | 5.8 | 10 (≈ 4.66 µg/mL) | –
30 | O=C(C1CCN(c2cc(N3CCOCC3)ncn2)CC1)N1CCCCC1Cc1ccccc1 (configuration not stated) | 5.4 | 125 (≈ 56.2 µg/mL) | –
31 | O=C(C1CCN(c2cc(N3CCOCC3)ncn2)CC1)N1CCc2ccccc2C1 | 6.5 | 10 (≈ 4.08 µg/mL) | –
32 | O=C(C1CCN(c2cncc(N3CCOCC3)n2)CC1)N1CCC(Cc2ccccc2)CC1 | 7.4 | 3 (≈ 1.35 µg/mL) | –
33 | O=C(C1CCN(c2cc(N3CCOCC3)ncn2)CC1)N1CCC(Cc2ccccc2)C1 (configuration not stated) | 6.9 | 4 (≈ 1.74 µg/mL) | –
34 | c1nc(N2CCCCCC2)cc(N2CCOCC2)n1 | < 4 | – | –
35 | c1nc(N2CCOCC2)cc(N2CCC3(CCCO3)CC2)n1 | 4.1 | – | –
36 | FC1(F)CCN(c2cc(N3CCOCC3)ncn2)C1 | 4.1 | – | –
37 | O=C(C1CCN(c2nccc(N3CCCCC3)n2)CC1)N1CCC(Cc2ccccc2)CC1 | 6.8 | 16 (≈ 7.16 µg/mL) | –
38 | CC(C)C1CCN(C(=O)C2CCN(c3cc(N4CCOCC4)ccn3)CC2)CC1 | 5.2 | > 125 | –

Row | SMILES | pIC50 [2] | MIC90 [3] [µM] | other results
39 | O=C(C1CCN(c2cc(N3CCOCC3)ncn2)CC1)N1CCOC(Cc2ccccc2)C1 (configuration not stated) | 5.2 | > 125 | –
40 | Nc1nc(N2CCOCC2)cc(N2CCC(C(=O)N3CCC(Cc4ccccc4)CC3)CC2)n1 | 7.3 | 3.5 (≈ 1.63 µg/mL) | –
41 | CC1CCN(C(=O)C2CCN(c3cc(N(C)C)ncn3)CC2)CC1 | 5 | 125 (≈ 41.4 µg/mL) | –
42 | O=C(c1ccc(F)cc1)N1CCN(C(=O)C2CCN(c3cc(N4CCOCC4)ncn3)CC2)CC1 | 4.6 | > 80 | –
43 | O=C(C1CCN(c2cc(N3CCOCC3)ncn2)CC1)N1CCC(Cc2ccccc2)CC1 | 7.6 | 0.6 (≈ 0.27 µg/mL) | solubility kinetic at 1 h [1]: 280 µM (≈ 126 µg/mL); MIC90 [5]: > 16 µM; MIC (Staphylococcus aureus): > 128 µg/mL; MIC (Escherichia coli): > 128 µg/mL; MIC90 [8]: 0.07 µM (≈ 0.0315 µg/mL)
44 | O=c1nc(N2CCOCC2)cc(N2CCCCC2)[nH]1 | 4.5 | – | –
45 | O=C(C1CCN(c2cc(N3CCOCC3)ncn2)CC1)N1CCC(CC2CCCC2)CC1 | 7.6 | 3 (≈ 1.32 µg/mL) | –
46 | COc1ncnc(Cn2cc(C(=O)NCCF)c3ncccc32)c1C | 7.4 | 4 (≈ 1.37 µg/mL) | solubility kinetic at 1 h [1]: 26 µM (≈ 8.93 µg/mL); MIC90 [5]: > 125 µM; ED99 [13]: 11 mg/kg; MIC90 [8]: 0.62 µM (≈ 0.213 µg/mL); ED99 [9]: 164 mg/kg; IC50 (HepG2): > 100 µM
47 | O=C(C1CCN(c2cc(N3CCOCC3)ncn2)CC1)N1CCC(Oc2ccccc2)CC1 | 8.1 | 2 (≈ 0.903 µg/mL) | –
48 | CC1CCN(C(=O)C2CCN(c3cc(NC4CCCC4)ncn3)CC2)CC1 | 4.7 | > 125 | –
49 | CC1(C)CCCN(c2cc(N3CCOCC3)ncn2)C1 | 4.6 | – | –
50 | CN1CCN(c2cc(N3CCC(C(=O)N4CCC(Cc5ccccc5)CC4)CC3)ncn2)CC1 | 4.7 | 125 (≈ 57.8 µg/mL) | –
51 | CC1CCN(C(=O)C2CCN(c3cc(N4CCCCC4)ncn3)CC2)CC1 | 6.5 | 15.6 (≈ 5.8 µg/mL) | solubility kinetic at 1 h [1]: > 488 µM
52 | O=C(C1CCN(c2cc(N3CCOCC3)ncn2)CC1)N1CCC(Oc2ccc(F)cc2F)CC1 | 7.5 | 1 (≈ 0.488 µg/mL) | –
53 | O=C(C1CCN(c2nnc(-n3cccc3)s2)CC1)N1CCC(Cc2ccccc2)CC1 | 7.3 | 4 (≈ 1.74 µg/mL) | solubility kinetic at 1 h [1]: < 1 µM
54 | CCC1CCN(C(=O)C2CCN(c3cc(N4CCOCC4)ncn3)CC2)CC1 | 6.8 | 8 (≈ 3.1 µg/mL) | –
55 | CC(C)C1CCN(C(=O)C2CCN(c3cc(N4CCOCC4)ncn3)CC2)CC1 | 7.1 | 4 (≈ 1.61 µg/mL) | –
56 | O=C(C1CCN(c2cc(N3CCCCC3)ncn2)CC1)N1CCC(Cc2ccccc2)CC1 | 7.1 | 2.5 (≈ 1.12 µg/mL) | solubility kinetic at 1 h [1]: 28 µM (≈ 12.5 µg/mL)
57 | O=C(C1CCN(c2cc(N3CCOCC3)ncn2)CC1)N1CCC(CCN2CCCC2)CC1 | 4.1 | > 125 | –

From ChEMBL document CHEMBL4402556, “Mycobacterium tuberculosis Decaprenylphosphoryl-β-d-ribose Oxidase Inhibitors: Expeditious Reconstruction of Suboptimal Hits into a Series with Potent in Vivo Activity” (J Med Chem, 2020)
